Reference: US20240358678A1, “METHODS AND COMPOSITIONS FOR ENHANCING CHEMOTHERAPEUTIC DRUG UPTAKE INTO BRAIN TUMORS” (Brown University, priority 2023, published 2024)
“Also recorded” adds a separate entry of the source.

Tests used:
[1] = test system: HCMEC/D3 cells; experiment: Immunofluorescence staining of HCMEC/D3 endothelial cells; assay type: cell-based, human; settings: BIA 1 μM
Procedure: Immunofluorescent (IF) staining: For IF staining of HCMEC/D3 endothelial cells, we coated 8-well Nunc™ Lab-Tek™ chamber slides (Thermo Fisher Scientific) with 1× Type 1 rat-tail collagen (Corning) following provider's instructions. Then, we plated at a density of 50,000 cells/well and left in culture for 72 hours to allow for barrier formation. Next, we treated with BIA or control for 24-48 hours. Cells were then fixed with 10% formalin (Thermo Fisher Scientific) for 10 minutes, permeabilized for 30 minutes using 0.01% Triton X-100 and blocked with 0.1% normal donkey serum (Calbiochem) for 1 hour in 0.025% Tween-20 (Thermo Fisher Scientific) in Phosphate-Buffered Saline (PBS) (Gibco). Then, primary antibodies were added: mouse anti-CDH5 (VE-cadherin, BioLegend) 1:100, rabbit antiClaudin-5 (Thermo Fisher Scientific) 1:100, and mouse anti-ZO-1 (Invitrogen) 1:100, and incubated overnight in the cold. Next day, secondary antibodies were used for 2 hours at room temperature: Alexa Fluor 594 anti-mouse (1:500), Alexa Fluor 594 anti-rabbit (1:500), and Alexa Fluor 647 anti-mouse (1:500), all of these Thermo Fisher Scientific. For cytoskeleton staining Phalloidin-iFluor 488 (Abcam) 1:1000 for 30 minutes and nuclei staining using Hoechst 33342 (Thermo Fisher Scientific) 1:1000 for 5 minutes, at room temperature.

[2] = test system: BBB spheroids; experiment: BBB spheroids staining and dextran permeability assay; assay type: cell-based, human; settings: BIA 72 hours
Procedure: BBB spheroids and dextran permeability assay: BBB spheroids were grown and cultured with a FITC-conjugated (70 kDa) fluorescent dextran (Millipore Sigma) as previously reported.^51,86,87 BBB spheroids were grown for 48 hours and then treated with BIA at increasing doses for 72 hours. Then, spheroids were collected and stained as indicated above for CDH5 and F-actin (Phalloidin). In the case of fluorescent dextran incubation, BBB spheroids were collected in 1.5 mL microtubes (Eppendorf) and incubated for 3 hours at 37 degrees Celsius. Pictures were taken by confocal microscopy. For dextran permeability measurement, 21 images using Z-stack layers of 5 μm intervals for achieving a total depth of 100 μm within the sphere. Fluorescent-dextran intensity from maximal intensity projection was quantified using Image J (National Institute of Health).

[3] = test system: HCMEC/D3 cells; experiment: Flow cytometry of late apoptosis by Sytox Blue staining; assay type: cell-based, human; settings: any of the used BIA doses, 72 hours, vs cisplatin control
Procedure: For apoptosis assessment, […]3 cells were treated as indicated above for 72 hours with BIA at indicated doses. Cells were collected from the 6-well plates and washed three times with PBS. Then, incubated with SYTOXTM Blue nucleic acid stain (5 mM) with a dilution of 1:1000 for 15 minutes. Cells were submitted and analyzed in the CytoFLEX system and its software as indicated above.

[4] = test system: HCMEC/D3 cells; experiment: Platinum levels in brain endothelial cells treated with BIA and cisplatin; assay type: cell-based, human; settings: 2 μM BIA and cisplatin simultaneously
[5] = test system: G9-PCDH and G34-PCDH xenograft murine models; experiment: Immunofluorescence of brain tissue from GBM xenograft models; assay type: in vivo, mice; settings: 24 hours after 20 mg/kg BIA
Procedure: For mouse brain tissue staining, brains were collected from CO2 euthanized and PBS perfused tumor-bearing mice, and fixed in 10% formalin for 72 hours on rotation in the cold. Then, brains were transferred to 30% sucrose for 3 days at 4 degrees Celsius under rotation. Before cryo-sectioning, brains were frozen at −80 degree Celsius for more than 30 minutes, embedded in Optimal Cutting Temperature (OCT) compound (Fisher) and transferred to −27 degrees Celsius to a cryostat (Leica CM1950) for sectioning (20 μm thickness). Sections were placed on slides and staining followed as indicated above. All pictures were taken using a LSM 880 Zeiss confocal microscope.
In vivo studies: For intra-cranial tumor implantation, GBM neuro-spheres were grown to 70% confluency before dissociated into single cell on the day of surgery. 50,000 cells were resuspended in 3 μl of sterile PBS and injected intracranially into the striatum (2 mm right hemisphere, 1 mm frontal, 3 mm depth from bregma) of mice under anesthesia and stereo-tactically fixed. Tumors were left to grow for approximately 2-3 weeks, depending the cell line. Animals were randomized to treatment groups. BIA injections consisted of 20 mg/kg (i.p.), except if indicated otherwise. PPRX-1701 was administered at 20 mg/kg (i.v.) via lateral tail-vein. Cisplatin injections were performed at 5 mg/kg (maximum tolerated dose, i.p.). All GBM tumor murine studies involved continuous condition and weight assessments, with endpoint considered when 20% of weight loss and/or moderate-to-high grimace scale and neurological symptoms were observed.

[6] = test system: G30 tumors; experiment: DCE-MRI analysis of blood flow within a murine glioblastoma (k-trans); assay type: in vivo, mouse; settings: 24 hours after BiA 10 mg/kg IP vs pretreatment
Procedure: Magnetic Resonance Imaging (MRI): MRI was performed at the BWH Imaging Core on a 7T Bruker MRI apparatus. G30 tumors were implanted (50,000 cells per mouse) intracranially into the striatum using a stereotactic frame. After three weeks of tumor growth, MRI images were collected according to BWH Imaging Core protocols using Gadolinium contrast enhancement. After the first image was collected, BiA was administered IP at 10 mg/kg), and imaging were performed again.
The present study investigated whether the indirubin derivative, BiA (see FIG. 1A and FIG. 1B), can disrupt the permeability of the BTB. Blood flow within a murine glioblastoma was assessed using dynamic contrast-enhanced magnetic resonance imaging (DCE-MRI) analysis and as measured by k^trans.
K^trans is calculated by measuring the accumulation of gadolinium-based contrast agent in the extravascular-extracellular space. Interpretation of k^trans varied according to permeability and blood flow. In situations where permeability is very low (near-intact blood brain barrier), then k^trans is a useful measure of permeability, whereas in situations where permeability is very high (disrupted blood brain barrier), then k^trans will reflect perfusion.

[7] = test system: hCMEC/D3 brain microvascular endothelial cells; experiment: ECIS electrical impedance of endothelial monolayers (Example 1); assay type: cell-based, human; settings: BiA 1 μM, p<0.05
Procedure: Electrical Impedance Measurements: Human Brain microvascular endothelial cell (purchased from Sciencell) monolayers were plated on special culture chambers on top of opposing circular gold electrodes (Applied Biophysics Inc). Impedance was automatically recorded during cell monolayer formation.
The in vitro effects of indirubin on endothelial monolayer permeability were also assess using Electric Cell-substrate Impedance Sensing (ECIS®) to provide a real-time, label-free, impedance-based study of cell behaviors in tissue culture. BiA (1 μM) was added to endothelial monolayers in an ECIS impedance measurement culture system (Applied Physics).

With `CC(=O)ON=C1C(=C2C(=O)Nc3cc(Br)ccc32)Nc2ccccc21` [BIA, 6-bromoindirubin acetoxime] the “CDH5 immunofluorescence at the membrane periphery” value ([1]; 24-48 hrs) was “marked decrease”, the Claudin-5 immunofluorescence ([1]; 48 hours) was “no difference” and the ZO-1 immunofluorescence ([1]; 48 hours) was “marked reduction”. The “CDH5 expression in BBB spheroids (IF)” value [2] was “decreased the expression of CDH5 in a dose-dependent manner”, the “F-actin in BBB spheroids (Phalloidin)” value [2] was “reduced considerably” and the “FITC-dextran (70 kDa) permeability of BBB spheroids” value ([2]; dextran 3 hours) was “dose-dependent increase in permeability”. For the same compound, the late apoptosis/necrosis [3] was “did not show late apoptosis/necrosis”, the “cellular drug (platinum) accumulation due to BIA addition” value [4] was “did not observe any advantage in drug accumulation” and the “CDH5 expression in contra-lateral healthy brain regions” value [5] was “did not observe significant changes in expression of CDH5”. The “CDH5 in CD31+ endothelial cells and CDH5+ tumor cells” value [5] was “striking decrease of CDH5”, the “Claudin-5 staining in tissue” value ([5]; G9-PCDH xenograft) was “no visible differences in Claudin-5 staining” and the “ZO-1 expression in tissue” value ([5]; G9-PCDH xenograft) was “mild reductions of ZO-1 expression”. For the same compound, the “k-trans values in murine glioblastoma” value [6] was “significantly increased; also recorded: increased perfusion” and the “trans-endothelial electrical resistance / impedance” value [7] was “significantly decrease trans-endothelial electrical resistance; also recorded: diminishes electrical impedance”.
